Source: patent US7998933B2, “Process for treating the skin comprising applying to the skin at least one composition comprising at least one N-aminoacylamide” (L'Oreal S.A., priority 2000, dated 2011)
Values belong to the compound of their own block, whether it stands above or below them.

Tests used:
[1] = biological target: T1, human leukocyte elastase (HLE) (Homo sapiens, UniProt P08246); assay: in vitro anti-elastase activity, substrate Me-OSAAPV-p-NA, spectrophotometry; assay type: biochemical
T1 sequence (P08246 30-267): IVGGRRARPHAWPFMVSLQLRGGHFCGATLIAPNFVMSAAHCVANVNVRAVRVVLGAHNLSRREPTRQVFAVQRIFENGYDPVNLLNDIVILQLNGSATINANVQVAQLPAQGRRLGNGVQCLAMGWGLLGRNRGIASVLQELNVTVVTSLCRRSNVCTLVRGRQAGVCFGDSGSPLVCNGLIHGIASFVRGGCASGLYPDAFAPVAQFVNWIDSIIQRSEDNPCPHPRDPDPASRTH
Method: The in vitro anti-elastase activity of compounds according to the invention with respect to human leukocyte elastase (HLE) was determined. […]
The percentage inhibition of the control elastase activity is then determined by spectrophotometry.

[2] = test system: surviving human skin treated with human leukocyte elastase (HLE); assay: ex vivo activity on fresh sections of human skin treated with HLE for 2 hours, morphometric quantification of elastic fibres; assay type: cell-based; conditions: 10 μg/ml HLE + 0.1% compound, 2 hours at 20° C.
Method: (§1) The ex vivo activity of the compound of Example 2 was evaluated on surviving human skin treated with human leukocyte elastase (HLE).
Fresh sections of human skin, obtained from 2 different donors, are treated for 2 hours at 20° C. with 20 μl of buffer solution (pH 7.4) optionally comprising 10 μg/ml of HLE and optionally 0.1% of the test compound, optionally predissolved in ethanol.
(§2) The elastic fibres are stained blue with (+)-catechin and morphometrically quantified by computer-assisted image analysis. The percentage of average dermal surface area occupied by the elastic fibres is thus evaluated.

[3] = test system: surviving human skin treated with human leukocyte elastase (HLE); assay: ex vivo activity on human skin fragments kept alive in culture for 10 days with HLE, morphometric quantification of elastic fibres; assay type: cell-based; conditions: three donors; 0.5 μg/ml HLE + 5 μl of 0.2% compound in ethanol every two days, 10 days at 37° C.; control 7.4%, HLE alone 5.1%
Method: as §1
(§3) Fragments of normal human skin obtained from three different donors are placed in inserts positioned in culture wells. Culture medium supplemented with antibiotics is placed in the bottom of the wells. A passage is carried out by slow diffusion between the two compartments by means of a porous membrane (pore size: 12 μm).
(§4) The culture medium is freshened every three days.
0.5 μg of HLE per ml of culture medium is optionally added to the skin fragments.
5 μl of the test compound, predissolved at a concentration of 0.2% by weight in ethanol, is also added every two days.
The skins are kept alive for 10 days at 37° C.
as §2

[4] = test system: surviving human skin irradiated with UVA (8 J/cm^2); assay: activity on surviving human skin irradiated with UVA, morphometric analysis of elastic fibres and collagen; assay type: cell-based; conditions: UVA 8 J/cm^2 once + 5 μl of 0.2% compound every two days, 7 days at 37° C.
Method: The activity of the compound of Example 2 on surviving human skin irradiated with UVA (8 J/cm^2) was evaluated.
as §3, with “four” for “three”
as §4
5 μl of the test compound, predissolved at a concentration of 0.2% in ethanol, is added to the skin fragments every two days.
The skins are kept alive for 7 days at 37° C.
The skins are irradiated once at 8 J/cm^2 (Vilbert-Lourmat RMX-3W lamp).
as §2

[5] = compound concentration 0.1%, HLE 40 milliunits per ml, 37° C., 60 minutes

SMILES: CCOC(=O)CNC(=O)C(C(C)C)N(Cc1ccccc1)C(=O)CP(=O)(OCC)OCC (centres unmarked) [Compound B, ethyl [2-{benzyl((diethoxyphosphoryl)acetyl]amino}-3-methylbutyrylamino)acetate]
% inhibition of the control elastase activity [1, 5]: 17%

% inhibition of the control elastase activity [1, 5]: 67%
% inhibition of the control elastase activity ([1]; concentration of compound A 0.01%): 53%
% inhibition of the control elastase activity ([1]; concentration of compound A 0.05%): 50%
% inhibition of the control elastase activity ([1]; concentration of compound A 0.1% (concentration series)): 68%
% inhibition of the control elastase activity ([1]; concentration of compound A 0.2%): 68%
SMILES: CC(=O)N(c1cccc(C(F)(F)F)c1)C(C(=O)NCC(=O)O)C(C)C (centres unmarked) [Example 2, {2-[acetyl (3-trifluoromethylphenyl)amino]-3-methylbutyrylamino}acetic acid]
inhibition of the elastase activity (in words) [1]: strong inhibition of the elastase activity, even in a small amount
% of surface area occupied by the elastic fibres ([2]; Skin 1, control 12.7%, HLE alone 4.85%): 13.95%
% of surface area occupied by the elastic fibres ([2]; Skin 2, control 15.25%, HLE alone 6.85%): 11.85%
% of surface area occupied by the elastic fibres [3]: 7.1%
Morphometric analysis of the elastic fibres (superficial dermis) ([4]; untreated 6.75%, UVA alone 3.9%): 6.8%
Morphometric analysis of the collagen (superficial dermis) ([4]; untreated 87%, UVA alone 81%): 92%

% inhibition of the control elastase activity [1, 5]: 20%
SMILES: CC(=O)N(Cc1ccccc1)C(C(=O)NCC(=O)O)C(C)C (centres unmarked) [Compound C, [2-(acetylbenzylamino)-3-methylbutyrylamino]acetic acid]

% inhibition of the control elastase activity [1, 5]: 13%
SMILES: CCOC(=O)CNC(=O)C(C(C)C)N(Cc1ccccc1)C(C)=O (centres unmarked) [Compound D, ethyl [2-(acetylbenzylamino)-3-methylbutyrylamino]acetate]
